Data published in ChEMBL document CHEMBL5346933, “Design and synthesis of novel arylurea derivatives of aryloxy(1-phenylpropyl) alicyclic diamines with antimicrobial activity against multidrug-resistant Gram-positive bacteria” (Eur J Med Chem, 2023).
Converted amounts (≈) assume the structure as drawn. The source made the active and inactive calls. The rule behind the calls is not given here.

Experiments:
[1] = tested on: Staphylococcus epidermidis; assay: Antibacterial activity against biofilm producer Staphylococcus epidermidis ATCC 35984 assessed as inhibition of bacterial growth incubated for 18 hrs by broth microdilution method; type: functional
[2] = tested on: Staphylococcus aureus; assay: Antibacterial activity against vancomycin-intermediate Staphylococcus aureus ATCC 700699 assessed as inhibition of bacterial growth incubated for 18 hrs by broth microdilution method; type: functional
[3] = tested on: Staphylococcus aureus; assay: Antibacterial activity against biofilm producer Staphylococcus aureus RN450 assessed as inhibition of bacterial growth incubated for 18 hrs by broth microdilution method; type: functional
[4] = tested on: Escherichia coli; assay: Antibacterial activity against Escherichia coli ATCC 25922 assessed as inhibition of bacterial growth incubated for 18 hrs by broth microdilution method; type: functional
[5] = tested on: Staphylococcus epidermidis; assay: Antibacterial activity against linezolid-resistant Staphylococcus epidermidis NIL 4399/19 assessed as inhibition of bacterial growth incubated for 18 hrs by broth microdilution method; type: functional
[6] = tested on: Enterococcus faecalis; assay: Antibacterial activity against Enterococcus faecalis ATCC 29212 assessed as inhibition of bacterial growth incubated for 18 hrs by broth microdilution method; type: functional
[7] = tested on: Staphylococcus aureus; assay: Antibacterial activity against methicillin-susceptible Staphylococcus aureus ATCC 25923 assessed as inhibition of bacterial growth incubated for 18 hrs by broth microdilution method; type: functional
[8] = Cytotoxicity against human MRC5 cells assessed as reduction in cell viability incubated for 24 hrs by MTT assay; type: toxicity, cell-based
[9] = Induction of hemolysis in horse RBC at 200 uM incubated for 1 hr; type: toxicity, cell-based, Equus caballus, Erythrocyte; details: horse red blood cells (erythrocytes), read-out: Activity
[10] = tested on: Enterococcus faecium; assay: Antibacterial activity against vancomycin-resistant Enterococcus faecium assessed as inhibition of bacterial growth incubated for 18 hrs by broth microdilution method; type: functional
[11] = Cytotoxicity against human BJ cells assessed as reduction in cell viability incubated for 24 hrs by MTT assay; type: toxicity, cell-based
[12] = Cytotoxicity against human BJ cells assessed as cell viability at 25 ug/ml incubated for 24 hrs by MTT assay; type: toxicity, cell-based; details: at 25 µg/mL, read-out: Activity
[13] = tested on: Staphylococcus epidermidis; assay: Antibacterial activity against methicillin-susceptible Staphylococcus epidermidis ATCC 12228 assessed as inhibition of bacterial growth incubated for 18 hrs by broth microdilution method; type: functional
[14] = tested on: Staphylococcus aureus; assay: Antibacterial activity against methicillin-resistant Staphylococcus aureus clinical strain 19449 assessed as inhibition of bacterial growth incubated for 18 hrs by broth microdilution method; type: functional
[15] = tested on: Klebsiella pneumoniae; assay: Antibacterial activity against Klebsiella pneumoniae ATCC 700603 assessed as inhibition of bacterial growth incubated for 18 hrs by broth microdilution method; type: functional
[16] = tested on: Streptococcus pneumoniae; assay: Antibacterial activity against Streptococcus pneumoniae ATCC 49619 assessed as inhibition of bacterial growth incubated for 18 hrs by broth microdilution method; type: functional
[17] = tested on: Pseudomonas aeruginosa; assay: Antibacterial activity against Pseudomonas aeruginosa ATCC 27853 assessed as inhibition of bacterial growth incubated for 18 hrs by broth microdilution method; type: functional
[18] = tested on: Cell membrane; assay: Induction of cell membrane depolarization in methicillin-resistant Staphylococcus aureus 19449 assessed as bacterial cells with depolarized membrane potential at 500 uM incubated for 25 to 30 mins by DiOC2(3) probe based flow cytometry (reference value: 0.7%); type: subcellular; details: time 25-30 min
[19] = tested on: Cell membrane; assay: Induction of cell membrane depolarization in vancomycin-resistant Enterococcus faecium clinical strain assessed as bacterial cells with depolarized membrane potential at 500 uM incubated for 25 to 30 mins by DiOC2(3) probe based flow cytometry (reference value: 0.8%); type: subcellular; details: time 25-30 min
[20] = tested on: Cell membrane; assay: Induction of cell membrane depolarization in methicillin-resistant Staphylococcus aureus 19449 assessed as bacterial cells with polarized membrane potential at 500 uM incubated for 25 to 30 mins by DiOC2(3) probe based flow cytometry (reference value: 98.8%); type: subcellular; details: time 25-30 min
[21] = tested on: Cell membrane; assay: Induction of cell membrane depolarization in Staphylococcus aureus Newman assessed as bacterial cells with depolarized membrane potential at 500 uM incubated for 25 to 30 mins by DiOC2(3) probe based flow cytometry (reference value: 1.6%); type: subcellular; details: time 25-30 min
[22] = tested on: Cell membrane; assay: Induction of cell membrane depolarization in vancomycin-resistant Enterococcus faecium clinical strain assessed as ratio of red to green fluorescence intensity at 500 uM incubated for 25 to 30 mins by DiOC2(3) probe based flow cytometry; type: subcellular; details: time 25-30 min
[23] = tested on: Cell membrane; assay: Induction of cell membrane depolarization in Staphylococcus aureus Newman assessed as ratio of red to green fluorescence intensity at 500 uM incubated for 25 to 30 mins by DiOC2(3) probe based flow cytometry; type: subcellular; details: time 25-30 min
[24] = tested on: Cell membrane; assay: Induction of cell membrane depolarization in Staphylococcus aureus Newman assessed as bacterial cells with polarized membrane potential at 500 uM incubated for 25 to 30 mins by DiOC2(3) probe based flow cytometry (reference value: 94.3%); type: subcellular; details: time 25-30 min
[25] = tested on: Cell membrane; assay: Induction of cell membrane depolarization in methicillin-resistant Staphylococcus aureus 19449 assessed as ratio of red to green fluorescence intensity at 500 uM incubated for 25 to 30 mins by DiOC2(3) probe based flow cytometry; type: subcellular; details: time 25-30 min
[26] = tested on: Cell membrane; assay: Induction of cell membrane depolarization in vancomycin-resistant Enterococcus faecium clinical strain assessed as bacterial cells with polarized membrane potential at 500 uM incubated for 25 to 30 mins by DiOC2(3) probe based flow cytometry (reference value: 96.8%); type: subcellular; details: time 25-30 min
[27] = tested on: Staphylococcus aureus; assay: Antibacterial activity against Staphylococcus aureus Newman assessed as inhibition of bacterial growth incubated for 18 hrs by broth microdilution method; type: functional
[28] = tested on: Streptococcus pneumoniae; assay: Antibacterial activity against Oxacillin-resistant Streptococcus pneumoniae O/19/4541 assessed as inhibition of bacterial growth incubated for 18 hrs by broth microdilution method; type: functional
[29] = tested on: Streptococcus pneumoniae; assay: Antibacterial activity against macrolides-lincosamides and streptogramins B-resistant Streptococcus pneumoniae O/19/4199 assessed as inhibition of bacterial growth incubated for 18 hrs by broth microdilution method; type: functional

| SMILES | MIC [1] [µg/mL] | MIC [2] [µg/mL] | MIC [3] [µg/mL] | Activity [4] | MIC [5] [µg/mL] | MIC [6] [µg/mL] | MIC [7] [µg/mL] | IC50 at 24 h [8] [µg/mL] | hemolysis at 1 h, 200 µM [9] [%] | MIC [10] [µg/mL] | IC50 at 24 h [11] [µg/mL] | MIC [13] [µg/mL] | MIC [14] [µg/mL] | Activity [15] | MIC [16] [µg/mL] | Activity [17] | also measured |
| --- | --- | --- | --- | --- | --- | --- | --- | --- | --- | --- | --- | --- | --- | --- | --- | --- | --- |
| O=C(Nc1cccc(Cl)c1)NC1CCN(CCC(Oc2cccc(Cl)c2)c2ccccc2)CC1 (racemic) | 1.56 (≈ 3.13 µM) | 3.12 (≈ 6.27 µM) | 1.56 (≈ 3.13 µM) | inactive | 3.12 (≈ 6.27 µM) | 3.12 (≈ 6.27 µM) | 3.12 (≈ 6.27 µM) | 6.25 (≈ 12.5 µM) | < 1 | 1.56 (≈ 3.13 µM) | > 25 | 3.12 (≈ 6.27 µM) | 3.12 (≈ 6.27 µM) | inactive | 6.25 (≈ 12.5 µM) | inactive | viability at 24 h, 25 ug/ml [12]: 91% |
| N#CC(C#N)=NNc1cccc(Cl)c1 |  |  |  |  |  |  |  |  |  |  |  |  |  |  |  |  | Activity [18]: 99%; Activity [19]: 88.1%; Activity [20]: 0.3%; Activity [21]: 94.5%; Ratio [22]: 0.29; Ratio [23]: 0.33; Activity [24]: 0%; Ratio [25]: 0.34; Activity [26]: 6.5% |
| CC(=O)NC[C@H]1CN(c2ccc(N3CCOCC3)c(F)c2)C(=O)O1 [LINEZOLID] | 1.56 (≈ 4.62 µM) | 1.56 (≈ 4.62 µM) | 0.78 (≈ 2.31 µM) |  | 250 (≈ 741 µM) | 1.56 (≈ 4.62 µM) | 3.12 (≈ 9.26 µM) |  |  | 0.78 (≈ 2.31 µM) |  | 1.56 (≈ 4.62 µM) | 3.12 (≈ 9.26 µM) |  | 0.78 (≈ 2.31 µM) |  | MIC [27]: 1.56 µg/mL (≈ 4.62 µM); MIC [28]: 1.56 µg/mL (≈ 4.62 µM); MIC [29]: 1.56 µg/mL (≈ 4.62 µM) |
| O=C(Nc1cccc(Cl)c1)NC1CCN(CCC(Oc2ccc(Cl)cc2)c2ccccc2)CC1 (racemic) | 1.56 (≈ 3.13 µM) | 3.12 (≈ 6.27 µM) | 1.56 (≈ 3.13 µM) | inactive | 3.12 (≈ 6.27 µM) | 3.12 (≈ 6.27 µM) | 3.12 (≈ 6.27 µM) | 6.25 (≈ 12.5 µM) | < 1 | 1.56 (≈ 3.13 µM) | 12.5 (≈ 25.1 µM) | 3.12 (≈ 6.27 µM) | 3.12 (≈ 6.27 µM) | inactive | 6.25 (≈ 12.5 µM) | inactive |  |
| O=C(Nc1cccc(Cl)c1)N[C@H]1CCN(CCC(Oc2cccc(Cl)c2)c2ccccc2)C1 (some centres not stated) | 3.12 (≈ 6.45 µM) | 3.12 (≈ 6.45 µM) | 3.12 (≈ 6.45 µM) | inactive | 3.12 (≈ 6.45 µM) | 3.12 (≈ 6.45 µM) | 3.12 (≈ 6.45 µM) | 3.12 (≈ 6.45 µM) | 8 | 0.78 (≈ 1.61 µM) | 6.25 (≈ 12.9 µM) | 3.12 (≈ 6.45 µM) | 3.12 (≈ 6.45 µM) | inactive | 6.25 (≈ 12.9 µM) | inactive |  |
| CN[C@H](CC(C)C)C(=O)N[C@H]1C(=O)N[C@@H](CC(N)=O)C(=O)N[C@H]2C(=O)N[C@H]3C(=O)N[C@H](C(=O)N[C@H](C(=O)O)c4cc(O)cc(O)c4-c4cc3ccc4O)[C@H](O)c3ccc(c(Cl)c3)Oc3cc2cc(c3O[C@@H]2O[C@H](CO)[C@@H](O)[C@H](O)[C@H]2O[C@H]2C[C@](C)(N)[C@H](O)[C@H](C)O2)Oc2ccc(cc2Cl)[C@H]1O [VANCOMYCIN] | 0.78 (≈ 0.538 µM) | 6.25 (≈ 4.31 µM) |  |  |  | 0.78 (≈ 0.538 µM) | 0.78 (≈ 0.538 µM) |  |  | 50 (≈ 34.5 µM) |  | 0.78 (≈ 0.538 µM) | 0.78 (≈ 0.538 µM) |  | 0.39 (≈ 0.269 µM) |  | MIC [28]: 0.1 µg/mL (≈ 0.069 µM) |
| O=C(NCC1CCN(CCC(Oc2ccc(C(F)(F)F)cc2)c2ccccc2)CC1)Nc1cccc(Cl)c1 (racemic) | 1.56 (≈ 2.86 µM) | 6.25 (≈ 11.4 µM) | 1.56 (≈ 2.86 µM) | inactive | 3.12 (≈ 5.72 µM) | 3.12 (≈ 5.72 µM) | 3.12 (≈ 5.72 µM) | 3.12 (≈ 5.72 µM) | 5 | 0.78 (≈ 1.43 µM) | 3.12 (≈ 5.72 µM) | 1.56 (≈ 2.86 µM) | 3.12 (≈ 5.72 µM) | inactive | 12.5 (≈ 22.9 µM) | inactive |  |
| O=C(NCC1CCN(CCC(Oc2ccc(Cl)cc2)c2ccccc2)CC1)Nc1cccc(Cl)c1 (racemic) | 3.12 (≈ 6.1 µM) | 3.12 (≈ 6.1 µM) | 3.12 (≈ 6.1 µM) | inactive | 6.25 (≈ 12.2 µM) | 3.12 (≈ 6.1 µM) | 6.25 (≈ 12.2 µM) | 3.12 (≈ 6.1 µM) | 6 | 0.39 (≈ 0.761 µM) | 12.5 (≈ 24.4 µM) | 3.12 (≈ 6.1 µM) | 6.25 (≈ 12.2 µM) | inactive | 6.25 (≈ 12.2 µM) | inactive |  |
